Assay results from the supplement of paper PMC4862054.

What was measured:
Test in all cases: normalised response (% of control), CellTiter-Glo; higher = more viable cells (100 = DMSO, 0 = benzethonium chloride kill control)
Settings in all cases: incubation time: 72 h
HCC1599 = test system: HCC1599
Method in brief: (§1)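 Normalised signals at single concentrations make up the values. They come from breast cancer cell lines seeded (20 µl suspension) into 384-well plates with compound at 5 concentrations in 10-fold steps over a compound-specific 10,000-fold range, incubated 72 h, and read for CellTox Green fluorescence then CellTiter-Glo luminescence. Each plate was normalised to 0.1 % DMSO (100) and a positive kill control (0).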

CAL-148 = test system: CAL-148
Method in brief: as §1

MDA-MB-453 = test system: MDA-MB-453
Method in brief: as §1

MDA-MB-231 = test system: MDA-MB-231
Method in brief: as §1

CAL-120 = test system: CAL-120
Method in brief: as §1

BT-549 = test system: BT-549
Method in brief: as §1

MCF-10A = test system: MCF-10A
Method in brief: as §1

BT-474 = test system: BT-474
Method in brief: as §1

MDA-MB-436 = test system: MDA-MB-436
Method in brief: as §1

CAL-85-1 = test system: CAL-85-1
Method in brief: as §1

CAL-51 = test system: CAL-51
Method in brief: as §1

DU-4475 = test system: DU-4475
Method in brief: as §1

HCC1143 = test system: HCC1143
Method in brief: as §1

MFM-223 = test system: MFM-223
Method in brief: as §1

HDQ-P1 = test system: HDQ-P1
Method in brief: as §1

MDA-MB-468 = test system: MDA-MB-468
Method in brief: as §1

Hs578T = test system: Hs578T
Method in brief: as §1

SK-BR-3 = test system: SK-BR-3
Method in brief: as §1

HCC1937 = test system: HCC1937
Method in brief: as §1

Compound	normalised response (HCC1599) [%]	normalised response (CAL-148) [%]	normalised response (MDA-MB-453) [%]	normalised response (MDA-MB-231) [%]	normalised response (CAL-120) [%]	normalised response (BT-549) [%]	normalised response (MCF-10A) [%]	normalised response (BT-474) [%]	normalised response (MDA-MB-436) [%]	normalised response (CAL-85-1) [%]	normalised response (CAL-51) [%]	normalised response (DU-4475) [%]	normalised response (HCC1143) [%]	normalised response (MFM-223) [%]	normalised response (HDQ-P1) [%]	normalised response (MDA-MB-468) [%]	normalised response (Hs578T) [%]	normalised response (SK-BR-3) [%]	normalised response (HCC1937) [%]
CS(=O)(=O)CCNCc1ccc(-c2ccc3ncnc(Nc4ccc(OCc5cccc(F)c5)c(Cl)c4)c3c2)o1 [Lapatinib] (0.1 nM)	90.2	110	121	100	96	101	98.4	102	86.2	106	110	109	99.2	104	101	112	101	114	98.8
CS(=O)(=O)OCCCCOS(C)(=O)=O [Busulfan] (100 nM)	94.5	101	109	101	99.1	97.2	108	101	97.2	98.1	121	109	112	112	99.7	106	105	97.5	97.9
COc1cc(Nc2ncc(F)c(Nc3ccc4c(n3)NC(=O)C(C)(C)O4)n2)cc(OC)c1OC [Tamatinib] (1 nM)	114	102	121	107	102	101	111	98.5	105	97.9	105	106	108	108	101	101	111	112	98.5
FC(F)c1nc2ccccc2n1-c1nc(N2CCOCC2)nc(N2CCOCC2)n1 [ZSTK474] (1 nM)	101	96.8	106	99.7	97.7	104	106	98.8	97.9	92.5	81.5	96.6	96.8	99	101	100	102	97.7	100
Nc1nccc(-c2c(-c3ccc(F)cc3)ncn2C2CCCCC2)n1 (1 nM)	104	105	95.5	105	95.7	109	110	97.9	100	98.8	119	102	109	102	101	94.1	104	108	105
